{"source": "ChEMBL document CHEMBL1671652", "about": "“Efficacy of piperacillin combined with the Penem beta-lactamase inhibitor BLI-489 in murine models of systemic infection” (2009)", "key": {"[1]": {"tested_on": "Salmonella typhimurium", "test": "Antimicrobial activity against CTX-M-5 beta-lactamase producing Salmonella enterica serovar Typhimurium GC 4195 by broth microdilution method in presence of beta-lactamase inhibitor Tazobactam", "assay_type": "functional, Salmonella enterica subsp. enterica serovar Typhimurium"}, "[2]": {"tested_on": "Klebsiella pneumoniae", "test": "Antimicrobial activity against SHV-11beta-lactamase producing Klebsiella pneumoniae GAR 7693 infected in CD-1 mouse treated 30 and 150 mins postinfection in presence of beta-lactamase inhibitor Tazobactam", "assay_type": "functional"}, "[3]": {"tested_on": "Klebsiella pneumoniae", "test": "Antimicrobial activity against SHV-1and SHV-5 beta-lactamase producing Klebsiella pneumoniae GAR 7978 infected in CD-1 mouse treated 30 and 150 mins postinfection in presence of beta-lactamase inhibitor Tazobactam", "assay_type": "functional"}, "[4]": {"tested_on": "Salmonella typhimurium", "test": "Antimicrobial activity against CTX-M-5 beta-lactamase producing Salmonella enterica serovar Typhimurium GC 4195 by broth microdilution method", "assay_type": "functional, Salmonella enterica subsp. enterica serovar Typhimurium"}, "[5]": {"tested_on": "Klebsiella pneumoniae", "test": "Antimicrobial activity against SHV-1and SHV-5 beta-lactamase producing Klebsiella pneumoniae GAR 7978 infected in CD-1 mouse treated 30 and 150 mins postinfection in presence of 8:1 ratio of compound to beta-lactamase inhibitor BLI-489", "assay_type": "functional"}, "[6]": {"tested_on": "Pseudomonas aeruginosa", "test": "Antimicrobial activity against AmpC beta-lactamase producing Pseudomonas aeruginosa GC 1764 infected in CD-1 mouse treated 30 and 150 mins postinfection in presence of beta-lactamase inhibitor Tazobactam", "assay_type": "functional"}, "[7]": {"tested_on": "Staphylococcus aureus", "test": "Antimicrobial activity against penicillinase producing Staphylococcus aureus GC 6468 by broth microdilution method in presence of 8:1 ratio of compound to beta-lactamase inhibitor BLI-489", "assay_type": "functional"}, "[8]": {"tested_on": "Escherichia coli", "test": "Antimicrobial activity against ACT-1 beta-lactamase producing Escherichia coli GC 2814 infected in CD-1 mouse treated 30 and 150 mins postinfection", "assay_type": "functional"}, "[9]": {"tested_on": "Klebsiella pneumoniae", "test": "Antimicrobial activity against SHV-11 beta-lactamase producing Klebsiella pneumoniae GAR 7693 by broth microdilution method", "assay_type": "functional"}, "[10]": {"tested_on": "Escherichia coli", "test": "Antimicrobial activity against OXA-1 beta-lactamase producing Escherichia coli GAR 5946 infected in CD-1 mouse treated 30 and 150 mins postinfection", "assay_type": "functional"}, "[11]": {"tested_on": "Escherichia coli", "test": "Antimicrobial activity against OXA-1 beta-lactamase producing Escherichia coli GAR 5946 infected in CD-1 mouse treated 30 and 150 mins postinfection in presence of 8:1 ratio of compound to beta-lactamase inhibitor BLI-489", "assay_type": "functional"}, "[12]": {"tested_on": "Staphylococcus aureus", "test": "Antimicrobial activity against penicillinase producing Staphylococcus aureus GC 6468 infected in CD-1 mouse treated 30 and 150 mins postinfection", "assay_type": "functional"}, "[13]": {"tested_on": "Pseudomonas aeruginosa", "test": "Antimicrobial activity against AmpC beta-lactamase producing Pseudomonas aeruginosa GC 1764 by broth microdilution method in presence of 8:1 ratio of compound to beta-lactamase inhibitor BLI-489", "assay_type": "functional"}, "[14]": {"tested_on": "Escherichia coli", "test": "Antimicrobial activity against TEM-1 beta-lactamase producing Escherichia coli GC 6265 infected in CD-1 mouse treated 30 mins postinfection in presence of 2:1 ratio of compound to beta-lactamase inhibitor BLI-489", "assay_type": "functional", "details": "GC 6265, 0.5 h"}, "[15]": {"tested_on": "Salmonella typhimurium", "test": "Antimicrobial activity against CTX-M-5 beta-lactamase producing Salmonella enterica serovar Typhimurium GC 4195 infected in CD-1 mouse treated 30 and 150 mins postinfection", "assay_type": "functional, Salmonella enterica subsp. enterica serovar Typhimurium"}, "[16]": {"tested_on": "Pseudomonas aeruginosa", "test": "Antimicrobial activity against AmpC beta-lactamase producing Pseudomonas aeruginosa GC 1764 infected in CD-1 mouse treated 30 and 150 mins postinfection in presence of 8:1 ratio of compound to beta-lactamase inhibitor BLI-489", "assay_type": "functional"}, "[17]": {"tested_on": "Enterobacter cloacae", "test": "Antimicrobial activity against AmpC beta-lactamase producing Enterobacter cloacae GC 4142 infected in CD-1 mouse treated 30 and 150 min postinfection in presence of 8:1 ratio of compound to beta-lactamase inhibitor BLI-489", "assay_type": "functional"}, "[18]": {"tested_on": "Escherichia coli", "test": "Antimicrobial activity against TEM-1 beta-lactamase producing Escherichia coli GC 6265 by broth microdilution method", "assay_type": "functional"}, "[19]": {"tested_on": "Escherichia coli", "test": "Antimicrobial activity against TEM-1 beta-lactamase producing Escherichia coli GC 6265 infected in CD-1 mouse treated 30 mins postinfection in presence of 10:1 ratio of compound to beta-lactamase inhibitor BLI-489", "assay_type": "functional", "details": "GC 6265, 0.5 h"}, "[20]": {"tested_on": "Enterobacter cloacae", "test": "Antimicrobial activity against AmpC beta-lactamase producing Enterobacter cloacae GC 4142 infected in CD-1 mouse treated 30 and 150 mins postinfection in presence of beta-lactamase inhibitor Tazobactam", "assay_type": "functional"}, "[21]": {"tested_on": "Escherichia coli", "test": "Antimicrobial activity against TEM-10 beta-lactamase producing Escherichia coli GC 2022 by broth microdilution method", "assay_type": "functional"}, "[22]": {"tested_on": "Escherichia coli", "test": "Antimicrobial activity against TEM-10 beta-lactamase producing Escherichia coli GC 2022 by broth microdilution method in presence of beta-lactamase inhibitor Tazobactam", "assay_type": "functional"}, "[23]": {"tested_on": "Enterobacter cloacae", "test": "Antimicrobial activity against AmpC beta-lactamase producing Enterobacter cloacae GC 4142 infected in CD-1 mouse treated 30 and 150 min postinfection", "assay_type": "functional"}, "[24]": {"tested_on": "Klebsiella pneumoniae", "test": "Antimicrobial activity against SHV-1and SHV-5 beta-lactamase producing Klebsiella pneumoniae GAR 7978 infected in CD-1 mouse treated 30 and 150 mins postinfection", "assay_type": "functional"}, "[25]": {"tested_on": "Escherichia coli", "test": "Antimicrobial activity against TEM-10 beta-lactamase producing Escherichia coli GC 2022 infected in CD-1 mouse treated 30 mins postinfection in presence of beta-lactamase inhibitor Tazobactam", "assay_type": "functional", "details": "GC 2022, 0.5 h"}, "[26]": {"tested_on": "Escherichia coli", "test": "Antimicrobial activity against ACT-1 beta-lactamase producing Escherichia coli GC 2814 infected in CD-1 mouse treated 30 and 150 mins postinfection in presence of 8:1 ratio of compound to beta-lactamase inhibitor BLI-489", "assay_type": "functional"}, "[27]": {"tested_on": "Escherichia coli", "test": "Antimicrobial activity against OXA-1 beta-lactamase producing Escherichia coli GAR 5946 by broth microdilution method", "assay_type": "functional"}, "[28]": {"tested_on": "Escherichia coli", "test": "Antimicrobial activity against ACT-1 beta-lactamase producing Escherichia coli GC 2814 by broth microdilution method in presence of beta-lactamase inhibitor Tazobactam", "assay_type": "functional"}, "[29]": {"tested_on": "Pseudomonas aeruginosa", "test": "Antimicrobial activity against AmpC beta-lactamase producing Pseudomonas aeruginosa GC 1764 by broth microdilution method in presence of beta-lactamase inhibitor Tazobactam", "assay_type": "functional"}, "[30]": {"tested_on": "Klebsiella pneumoniae", "test": "Antimicrobial activity against SHV-11 beta-lactamase producing Klebsiella pneumoniae GAR 7693 infected in CD-1 mouse treated 30 and 150 mins postinfection", "assay_type": "functional"}, "[31]": {"tested_on": "Escherichia coli", "test": "Antimicrobial activity against TEM-10 beta-lactamase producing Escherichia coli GC 2022 by broth microdilution method in presence of 8:1 ratio of compound to beta-lactamase inhibitor BLI-489", "assay_type": "functional"}, "[32]": {"tested_on": "Enterobacter cloacae", "test": "Antimicrobial activity against AmpC beta-lactamase producing Enterobacter cloacae GC 4142 infected in CD-1 mouse treated 30 and 150 min postinfection in presence of 10:1 ratio of compound to beta-lactamase inhibitor BLI-489", "assay_type": "functional"}, "[33]": {"tested_on": "Escherichia coli", "test": "Antimicrobial activity against TEM-10 beta-lactamase producing Escherichia coli GC 2022 infected in CD-1 mouse treated 30 mins postinfection in presence of 8:1 ratio of compound to beta-lactamase inhibitor BLI-489", "assay_type": "functional", "details": "GC 2022, 0.5 h"}, "[34]": {"tested_on": "Escherichia coli", "test": "Antimicrobial activity against TEM-1 beta-lactamase producing Escherichia coli GC 6265 by broth microdilution method in presence of 8:1 ratio of compound to beta-lactamase inhibitor BLI-489", "assay_type": "functional"}, "[35]": {"tested_on": "Staphylococcus aureus", "test": "Antimicrobial activity against penicillinase producing Staphylococcus aureus GC 6468 by broth microdilution method in presence of beta-lactamase inhibitor Tazobactam", "assay_type": "functional"}}}
{"smiles": "CCN1CCN(C(=O)N[C@@H](C(=O)N[C@@H]2C(=O)N3[C@@H]2SC(C)(C)[C@@H]3C(=O)O)c2ccccc2)C(=O)C1=O", "note": "[PIPERACILLIN]", "values": [{"measurement": "MIC", "setting": "[1]", "result": "> 64", "unit": "µg/mL"}, {"measurement": "ED50", "setting": "[2]", "result": 24, "unit": "mg/kg"}, {"measurement": "ED50", "setting": "[3]", "result": 58, "unit": "mg/kg"}, {"measurement": "MIC", "setting": "[4]", "result": 8, "unit": "µg/mL"}, {"measurement": "ED50", "setting": "[5]", "result": 28, "unit": "mg/kg"}, {"measurement": "ED50", "setting": "[6]", "result": 246, "unit": "mg/kg"}, {"measurement": "MIC", "setting": "[7]", "result": 1, "unit": "µg/mL"}, {"measurement": "ED50", "setting": "[8]", "result": 103, "unit": "mg/kg"}, {"measurement": "MIC", "setting": "[9]", "result": 2, "unit": "µg/mL"}, {"measurement": "ED50", "setting": "[10]", "result": 980, "unit": "mg/kg"}, {"measurement": "ED50", "setting": "[11]", "result": 86, "unit": "mg/kg"}, {"measurement": "ED50", "setting": "[12]", "result": 418, "unit": "mg/kg"}, {"measurement": "MIC", "setting": "[13]", "result": 4, "unit": "µg/mL"}, {"measurement": "ED50", "setting": "[14]", "result": 8.5, "unit": "mg/kg"}, {"measurement": "ED50", "setting": "[15]", "result": 1120, "unit": "mg/kg"}, {"measurement": "ED50", "setting": "[16]", "result": 103, "unit": "mg/kg"}, {"measurement": "ED50", "setting": "[17]", "result": 32, "unit": "mg/kg"}, {"measurement": "MIC", "setting": "[18]", "result": "> 64", "unit": "µg/mL"}, {"measurement": "ED50", "setting": "[19]", "result": 12, "unit": "mg/kg"}, {"measurement": "ED50", "setting": "[20]", "result": 71, "unit": "mg/kg"}, {"measurement": "MIC", "setting": "[21]", "result": 1, "unit": "µg/mL"}, {"measurement": "MIC", "setting": "[22]", "result": 2, "unit": "µg/mL"}, {"measurement": "ED50", "setting": "[23]", "result": 282, "unit": "mg/kg"}, {"measurement": "ED50", "setting": "[24]", "result": 245, "unit": "mg/kg"}, {"measurement": "ED50", "setting": "[25]", "result": 25, "unit": "mg/kg"}, {"measurement": "ED50", "setting": "[26]", "result": 13, "unit": "mg/kg"}, {"measurement": "MIC", "setting": "[27]", "result": 2, "unit": "µg/mL"}, {"measurement": "MIC", "setting": "[28]", "result": "> 64", "unit": "µg/mL"}, {"measurement": "MIC", "setting": "[29]", "result": 32, "unit": "µg/mL"}, {"measurement": "ED50", "setting": "[30]", "result": 193, "unit": "mg/kg"}, {"measurement": "MIC", "setting": "[31]", "result": "> 64", "unit": "µg/mL"}, {"measurement": "ED50", "setting": "[32]", "result": 47, "unit": "mg/kg"}, {"measurement": "ED50", "setting": "[33]", "result": 40, "unit": "mg/kg"}, {"measurement": "MIC", "setting": "[34]", "result": 4, "unit": "µg/mL"}, {"measurement": "MIC", "setting": "[35]", "result": 1, "unit": "µg/mL"}]}
